One assay addresses Beta-secretase 1 (Homo sapiens, UniProt P56817). The assay can be described thus: Inhibition of human recombinant BACE1 by FRET based peptide cleavage assay.
For a further assay, the target named is T1, Beta-secretase 2 (Homo sapiens, UniProt Q9Y5Z0).
T1 sequence (Q9Y5Z0 whole entry): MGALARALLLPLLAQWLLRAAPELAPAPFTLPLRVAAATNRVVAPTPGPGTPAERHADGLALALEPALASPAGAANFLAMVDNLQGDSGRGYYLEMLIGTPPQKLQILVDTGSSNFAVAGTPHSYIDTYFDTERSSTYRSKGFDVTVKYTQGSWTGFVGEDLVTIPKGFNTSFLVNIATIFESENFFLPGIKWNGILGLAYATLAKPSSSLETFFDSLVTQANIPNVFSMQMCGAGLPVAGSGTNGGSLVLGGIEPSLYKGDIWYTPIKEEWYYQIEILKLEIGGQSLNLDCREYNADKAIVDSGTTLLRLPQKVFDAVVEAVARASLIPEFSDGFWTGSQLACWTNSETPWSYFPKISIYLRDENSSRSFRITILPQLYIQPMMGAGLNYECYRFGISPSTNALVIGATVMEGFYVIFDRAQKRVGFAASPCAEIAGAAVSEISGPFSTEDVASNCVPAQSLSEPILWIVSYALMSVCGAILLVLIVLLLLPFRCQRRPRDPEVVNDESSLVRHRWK
The assay can be described thus: Inhibition of BACE2 by FRET based peptide cleavage assay.

In the next assay the target is Cathepsin D (Homo sapiens, UniProt P07339). Nature of the assay: Inhibition of cathepsin D by FRET based peptide cleavage assay.
Chain of Cathepsin D (P07339 65-162 limits assumed): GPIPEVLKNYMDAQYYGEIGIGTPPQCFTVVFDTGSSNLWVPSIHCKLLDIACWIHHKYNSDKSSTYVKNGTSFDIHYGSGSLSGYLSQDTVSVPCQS
Chain of Cathepsin D (P07339 169-412 limits assumed): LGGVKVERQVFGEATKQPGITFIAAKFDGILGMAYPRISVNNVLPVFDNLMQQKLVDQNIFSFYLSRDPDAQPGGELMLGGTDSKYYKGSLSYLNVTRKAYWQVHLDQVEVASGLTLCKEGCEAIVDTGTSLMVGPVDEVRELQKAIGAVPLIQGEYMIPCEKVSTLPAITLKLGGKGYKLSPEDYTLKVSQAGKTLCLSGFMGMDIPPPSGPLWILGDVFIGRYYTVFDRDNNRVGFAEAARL
A further assay addresses Pepsin A (Homo sapiens, UniProt P0DJD9). Nature of the assay: Inhibition of pepsin by FRET based peptide cleavage assay.
The subject of another assay is CHO. The assay can be described thus: Decrease in beta amyloid protein level in CHO cells expressing human APP by ELISA. The assay is classed as functional. The settings on record: Cricetulus griseus, read-out: ED50 (the source's name). In general terms: An ELISA detects its analyte on a solid surface through an enzyme-linked reagent.
For the next assay, the species on record is Homo sapiens. Nature of the assay: Selectivity for BACE1 over Cathepsin D.
For assay [1], the system named is H4. Nature of the assay: Decrease in beta CTF level in wild type H4 cells by RICA. The conditions noted are these: Homo sapiens. The assay is classed as functional, cell-based.
Assay [2] deals with H4. The assay can be described thus: Decrease in beta amyloid protein level in wild type H4 cells by RICA. The class given is functional, cell-based. The settings on record: Homo sapiens.

Chain of Beta-secretase 1 (P56817 whole entry): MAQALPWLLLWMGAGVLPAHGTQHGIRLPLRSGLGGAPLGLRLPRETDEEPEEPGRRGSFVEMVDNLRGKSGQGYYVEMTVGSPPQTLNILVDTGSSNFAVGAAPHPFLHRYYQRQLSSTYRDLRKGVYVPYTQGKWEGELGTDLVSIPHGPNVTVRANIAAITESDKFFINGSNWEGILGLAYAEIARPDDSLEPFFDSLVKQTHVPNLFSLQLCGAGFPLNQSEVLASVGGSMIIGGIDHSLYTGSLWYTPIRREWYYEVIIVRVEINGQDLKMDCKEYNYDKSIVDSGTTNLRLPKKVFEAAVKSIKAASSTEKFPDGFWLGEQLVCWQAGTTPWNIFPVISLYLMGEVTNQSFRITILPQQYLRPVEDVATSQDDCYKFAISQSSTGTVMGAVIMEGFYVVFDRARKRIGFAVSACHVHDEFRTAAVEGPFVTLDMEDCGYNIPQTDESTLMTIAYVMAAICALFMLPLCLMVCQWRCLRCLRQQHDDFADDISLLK
Chain of Pepsin A (P0DJD9 whole entry): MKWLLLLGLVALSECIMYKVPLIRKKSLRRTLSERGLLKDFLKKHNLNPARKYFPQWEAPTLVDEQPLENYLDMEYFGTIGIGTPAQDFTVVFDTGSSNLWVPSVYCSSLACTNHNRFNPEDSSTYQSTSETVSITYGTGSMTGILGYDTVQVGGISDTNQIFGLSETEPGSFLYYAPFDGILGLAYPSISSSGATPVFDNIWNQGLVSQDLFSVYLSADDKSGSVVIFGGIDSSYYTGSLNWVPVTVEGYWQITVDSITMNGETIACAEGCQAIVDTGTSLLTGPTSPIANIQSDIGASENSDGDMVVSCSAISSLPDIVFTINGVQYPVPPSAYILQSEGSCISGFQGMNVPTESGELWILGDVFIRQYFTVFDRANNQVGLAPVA

For orientation: IC50 means the concentration needed to halve the response being measured. In the case of `N/C(=N/C(=O)Cn1c(-c2ccccc2)ccc1C12CC3CC(CC(C3)C1)C2)NCCCO`, the 50% inhibitory concentration (IC50) at Beta-secretase 1 is 0.24 µM; on Beta-secretase 2 it was 3.5 µM; on Cathepsin D, 19.4 µM; at Pepsin A, more than 50 µM. In the assay on CHO, the EC50 stood at 1.8 µM. Moreover, the Selectivity ratio in the assay listed under Homo sapiens was more than 50.

As for `CCCOc1ccc(-c2ccc(-c3ccccc3Cl)n2CC(=O)NC(=N)NCCCO)cc1`, the 50% inhibitory concentration (IC50) at Beta-secretase 1 was 0.11 µM; on Beta-secretase 2, 0.34 µM; against Cathepsin D it was 5.9 µM; on Pepsin A, more than 50 µM.

For the molecule `CCCOc1ccc(-c2ccc(-c3ccccc3Cl)n2CC(=O)/N=C(/N)NCCCO)cc1`, in the assay filed under Homo sapiens, the Selectivity ratio is more than 50.

On to `NC(N)=NC(=O)Cn1c(-c2ccccc2)ccc1C12CC3CC(CC(C3)C1)C2`, for which the IC50 is 0.6 µM on Beta-secretase 1, 12.9 µM on Beta-secretase 2, 30.2 µM against Cathepsin D and more than 50 µM at Pepsin A. Further, the EC50 in the assay on CHO amounted to 3.1 µM. Also, in the assay filed under Homo sapiens, the Selectivity ratio was more than 50.

The molecule `N=C(N)NC(=O)Cn1c(-c2ccccc2)ccc1-c1ccccc1` came in with a concentration for half-maximal inhibition (IC50) against Pepsin A of more than 50 µM. For the same molecule, the Activity entry in the assay on H4 [1] and in the assay on H4 [2] was “Dose-dependent effect” throughout.

`CC(=O)c1ccc(Oc2ccc(-c3ccc(-c4ccccc4Cl)n3CC(=O)NC(=N)N)cc2)cc1` had a half-inhibitory concentration (IC50) on Pepsin A of more than 50 µM. For the same molecule, the EC50 in the assay on CHO worked out at 8.6 µM.

Source of the values: ChEMBL document CHEMBL1137408, “Acylguanidines as small-molecule beta-secretase inhibitors” (J Med Chem, 2006).
